Data from patent US20170088520A1, “DEUBIQUITINASE INHIBITORS” (PharmAkea, Inc., priority 2014, published 2017).

Experiments:
[1] = system: MM.1S myeloma tumor cells; test: In vivo tumor growth assay (xenograft model); conditions: SCID Beige mice injected with MM.1S myeloma tumor cells; 15 mpk three times per week
Description: Example B-3: In Vivo Tumor Growth Assay
A xenograft model is used to test efficacy of compounds in inhibiting tumor growth. Briefly, 1×10^6-2×10^7 tumor cell suspensions (Z138, A375, MM.1S, VCaP) are injected subcutaneously into the flank regions of mice (SCID, NSG, nude) in an equal volume of matrigel. Tumor volumes are measured using calipers and when the tumor volumes are ˜100 mm^3, test compound is administered every 1-3 days by oral gavage or by injection (intraperitoneal, intravenous, subcutaneous) until tumor volumes of the vehicle treated animals are ˜1000-2000 mm^3. Inhibition of primary tumor growth is evident as a significant decrease in tumor volume relative to the vehicle treated mice.
Following the above protocol using SCID Beige mice injected with MM.1S myeloma tumor cells and dosing with Compound 74 at 15 mpk three times per week, an approximately 50% reduction in tumor volume was observed

[2] = system: Mcl-1 expression in cells (NCI-H929, Z138, MM.1S, A-375); test: Analysis of Mcl-1 expression by Western blotting; assay type: cell-based; conditions: compound tested at 5 μM; Western blot
Summary of the method: (§1)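 NCI-H929, Z138, MM.1S and A-375 cells were treated with compounds at 5 μM, and lysates were Western blotted with anti-Mcl-1 and anti-PARP antibodies, quantified by infrared fluorescence. Activity is a significant drop in Mcl-1 and the appearance of cleaved PARP, each relative to vehicle-treated cells.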

[3] = system: PARP cleavage in cells (NCI-H929, Z138, MM.1S, A-375); test: Analysis of PARP cleavage by Western blotting; assay type: cell-based; conditions: compound tested at 5 μM; Western blot
Summary of the method: as §1

[4] = molecular target: T1, DUB activity in cells (NCI-H929, Z138, MM.1S, A375) (Homo sapiens, UniProt Q93008); test: HA-Ubiquitin-Vinylsulfone (HA-Ub-VS) cell labeling assay; assay type: cell-based; conditions: compound tested at 5 μM; HA-Ub-VS labeling of USP9x in cells
T1 construct: endogenous in cells; host or cells: NCI-H929, Z138, MM.1S, A375
T1 sequence (Q93008 whole entry): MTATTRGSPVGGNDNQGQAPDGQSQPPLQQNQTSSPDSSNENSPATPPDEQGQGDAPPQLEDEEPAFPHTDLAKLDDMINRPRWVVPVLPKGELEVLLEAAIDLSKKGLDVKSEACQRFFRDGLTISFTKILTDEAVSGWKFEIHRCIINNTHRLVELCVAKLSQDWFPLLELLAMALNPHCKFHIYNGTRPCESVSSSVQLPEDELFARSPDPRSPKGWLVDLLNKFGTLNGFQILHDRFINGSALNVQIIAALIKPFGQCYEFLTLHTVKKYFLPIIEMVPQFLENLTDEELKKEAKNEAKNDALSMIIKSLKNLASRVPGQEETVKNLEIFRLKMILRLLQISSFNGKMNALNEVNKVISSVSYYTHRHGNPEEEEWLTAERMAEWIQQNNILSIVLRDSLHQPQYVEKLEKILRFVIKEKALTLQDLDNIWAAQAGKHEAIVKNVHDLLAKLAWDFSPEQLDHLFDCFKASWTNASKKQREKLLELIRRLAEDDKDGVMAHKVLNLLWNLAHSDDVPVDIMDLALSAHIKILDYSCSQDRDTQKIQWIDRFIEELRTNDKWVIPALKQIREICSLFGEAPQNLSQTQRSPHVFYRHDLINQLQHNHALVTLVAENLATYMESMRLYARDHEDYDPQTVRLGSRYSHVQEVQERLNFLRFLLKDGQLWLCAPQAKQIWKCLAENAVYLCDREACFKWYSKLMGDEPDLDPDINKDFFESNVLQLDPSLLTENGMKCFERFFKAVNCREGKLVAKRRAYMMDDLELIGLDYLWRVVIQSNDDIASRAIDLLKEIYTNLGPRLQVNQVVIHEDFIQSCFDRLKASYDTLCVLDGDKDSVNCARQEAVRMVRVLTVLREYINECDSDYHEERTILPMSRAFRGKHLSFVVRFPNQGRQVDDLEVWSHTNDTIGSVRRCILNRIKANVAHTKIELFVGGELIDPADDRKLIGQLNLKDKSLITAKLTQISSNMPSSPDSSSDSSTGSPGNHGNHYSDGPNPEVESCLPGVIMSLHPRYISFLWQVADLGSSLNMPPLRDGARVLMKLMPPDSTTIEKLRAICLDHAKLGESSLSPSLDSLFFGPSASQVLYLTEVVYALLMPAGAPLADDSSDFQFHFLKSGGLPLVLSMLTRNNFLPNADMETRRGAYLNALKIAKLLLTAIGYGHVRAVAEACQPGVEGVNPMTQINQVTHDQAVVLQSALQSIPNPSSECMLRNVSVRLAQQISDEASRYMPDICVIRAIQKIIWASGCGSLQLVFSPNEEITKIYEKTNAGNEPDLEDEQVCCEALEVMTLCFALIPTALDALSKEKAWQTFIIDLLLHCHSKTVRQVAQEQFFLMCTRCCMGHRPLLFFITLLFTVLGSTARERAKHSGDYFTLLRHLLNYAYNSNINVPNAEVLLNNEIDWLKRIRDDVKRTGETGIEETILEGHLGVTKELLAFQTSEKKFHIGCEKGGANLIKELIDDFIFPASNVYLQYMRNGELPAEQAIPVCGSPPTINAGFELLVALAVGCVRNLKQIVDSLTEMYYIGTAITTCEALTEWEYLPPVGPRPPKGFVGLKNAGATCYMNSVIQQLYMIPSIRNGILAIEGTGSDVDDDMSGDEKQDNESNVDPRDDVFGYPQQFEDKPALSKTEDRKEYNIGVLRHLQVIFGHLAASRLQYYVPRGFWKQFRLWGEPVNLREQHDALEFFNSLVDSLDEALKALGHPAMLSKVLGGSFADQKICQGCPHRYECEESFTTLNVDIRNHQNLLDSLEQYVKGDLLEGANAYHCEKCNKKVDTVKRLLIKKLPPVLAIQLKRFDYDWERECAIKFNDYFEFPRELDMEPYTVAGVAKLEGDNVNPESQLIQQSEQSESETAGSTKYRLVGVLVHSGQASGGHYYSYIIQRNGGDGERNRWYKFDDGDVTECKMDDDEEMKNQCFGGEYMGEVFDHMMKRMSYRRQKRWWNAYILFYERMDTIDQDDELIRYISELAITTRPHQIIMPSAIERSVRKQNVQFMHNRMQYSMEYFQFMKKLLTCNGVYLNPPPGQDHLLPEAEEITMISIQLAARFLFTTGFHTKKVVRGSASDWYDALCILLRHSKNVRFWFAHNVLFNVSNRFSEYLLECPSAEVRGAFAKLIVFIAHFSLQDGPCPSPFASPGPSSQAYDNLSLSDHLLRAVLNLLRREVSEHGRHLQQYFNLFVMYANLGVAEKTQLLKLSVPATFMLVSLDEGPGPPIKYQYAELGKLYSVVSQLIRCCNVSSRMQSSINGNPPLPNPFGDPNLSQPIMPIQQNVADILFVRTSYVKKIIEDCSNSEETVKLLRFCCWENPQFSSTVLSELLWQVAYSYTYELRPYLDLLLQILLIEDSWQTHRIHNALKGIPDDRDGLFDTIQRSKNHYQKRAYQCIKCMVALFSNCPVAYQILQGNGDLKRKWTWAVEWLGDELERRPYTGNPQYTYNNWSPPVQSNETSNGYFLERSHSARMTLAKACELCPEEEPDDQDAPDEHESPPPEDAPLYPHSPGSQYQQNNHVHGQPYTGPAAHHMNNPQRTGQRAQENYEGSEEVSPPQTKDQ
Summary of the method: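 NCI-H929, Z138, MM.1S or A375 cells (1–2×10^6) treated 2–6 h at 37 °C with compound in 0.5% DMSO, here 5 μM. Lysates labeled with HA-Ub-VS for 15–60 min at 37 °C. Labeled DUBs resolved by SDS-PAGE and quantified by anti-HA and anti-β-actin immunoblot with infrared detection.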

| SMILES | inhibition at 5 µM [4] [%] | reduction in tumor volume [1] | inhibition at 5 µM [2] [%] | PARP cleavage % Inhibition [3] |
| --- | --- | --- | --- | --- |
| N#C/C(=C\c1ncc(Br)cc1Br)C(=O)NC1(c2ccc(F)cc2)CCCC1 [Compound 21, (E)-2-Cyano-3-(3,5-dibromopyridin-2-yl)-N-(1-(4-fluorophenyl)cyclopentyl)acrylamide] | ≥ 75 |  | ≥ 75 | A (A is ≧75% inhibition) |
| N#C/C(=C\c1cccc(Br)n1)C(=O)NC1(c2ccc(CO)cc2)CCCC1 [Compound 86, (E)-3-(6-bromopyridin-2-yl)-2-cyano-N-(1-(4-(hydroxymethyl)phenyl)cyclopentyl)acrylamide] | 25 to 50 |  | < 25 | B (B is 50% to 75% inhibition) |
| N#C/C(=C\c1ncc(Br)cc1Br)C(=O)NC1(c2ccccc2)CCOCC1 [Compound 24, (E)-2-Cyano-3-(3,5-dibromopyridin-2-yl)-N-(4-phenyltetrahydro-2H-pyran-4-yl)acrylamide] | ≥ 75 |  | 50 to 75 | A (A is ≧75% inhibition) |
| N#C/C(=C\c1cccc(Br)n1)C(=O)NC1(c2ccccc2)CCOCC1 [Compound 18, (E)-3-(6-Bromopyridin-2-yl)-2-cyano-N-(4-phenyltetrahydro-2H-pyran-4-yl)acrylamide] | 50 to 75 |  | 25 to 50 | B (B is 50% to 75% inhibition) |
| N#C/C(=C\c1cccc(Br)n1)C(=O)NC1(c2ccccc2)CC1 [Compound 2, (E)-3-(6-Bromopyridin-2-yl)-2-cyano-N-(1-phenylcyclopropyl)acrylamide] | < 25 |  | < 25 | C (C is 25% to 50% inhibition) |
| N#C/C(=C\c1cc(Br)ccn1)C(=O)NC1(c2ccccc2)CCCC1 [Compound 28, (E)-3-(4-bromopyridin-2-yl)-2-cyano-N-(1-phenylcyclopentyl)acrylamide] | < 25 |  | < 25 | D (D is <25% inhibition) |
| N#C/C(=C\c1cccc(Br)n1)C(=O)NC1(c2ccnc(Cl)c2)CCCC1 [Compound 3-6, (E)-3-(6-bromopyridin-2-yl)-N-(1-(2-chloropyridin-4-yl)cyclopentyl)-2-cyanoacrylamide] | 50 to 75 |  | 50 to 75 | A (A is ≧75% inhibition) |

Further lines, with some results ahead:

| inhibition at 5 µM [4] [%] | SMILES | reduction in tumor volume [1] | inhibition at 5 µM [2] [%] | PARP cleavage % Inhibition [3] |
| --- | --- | --- | --- | --- |
| 50 to 75 | N#C/C(=C\c1cccc(Br)n1)C(=O)NC1(c2ccc(-c3cccc(C(=O)O)c3)cc2)CCCC1 [Compound 74, (E)-4′-(1-(3-(6-bromopyridin-2-yl)-2-cyanoacrylamido)cyclopentyl)-[1,1′-biphenyl]-3-carboxylic acid] | approximately 50% | 50 to 75 | A (A is ≧75% inhibition) |
| ≥ 75 | N#C/C(=C\c1ncc(Br)cc1Br)C(=O)NC1(c2ccc(-c3cnc4[nH]ccc4c3)cc2)CCCC1 [Compound 59, (E)-N-(1-(4-(1H-pyrrolo[2,3-b]pyridin-5-yl)phenyl)cyclopentyl)-2-cyano-3-(3,5-dibromopyridin-2-yl)acrylamide] |  | ≥ 75 | A (A is ≧75% inhibition) |
| 25 to 50 | N#C/C(=C\c1cccc(Br)n1)C(=O)NC1(c2ccc(-c3ccc(C(=O)O)cc3)cc2)CCCC1 [Compound 91, (E)-4′-(1-(3-(6-bromopyridin-2-yl)-2-cyanoacrylamido)cyclopentyl)-[1,1′-biphenyl]-4-carboxylic acid] |  | ≥ 75 | A (A is ≧75% inhibition) |
| 25 to 50 | N#C/C(=C\c1cccc(C2CC2)n1)C(=O)NC1(c2ccc(-c3ccc4[nH]ccc4c3)cc2)CCCC1 [Compound 99, (E)-N-(1-(4-(1H-indol-5-yl)phenyl)cyclopentyl)-2-cyano-3-(6-cyclopropylpyridin-2-yl)acrylamide] |  | < 25 | C (C is 25% to 50% inhibition) |
| < 25 | N#C/C(=C\c1cccc(Br)n1)C(=O)NC1(c2ccccc2)CCOC1 (stereo not shown) [Compound 80, (E)-3-(6-bromopyridin-2-yl)-2-cyano-N-(3-phenyltetrahydrofuran-3-yl)acrylamide] |  | < 25 | D (D is <25% inhibition) |
| ≥ 75 | N#C/C(=C\c1cccc(Br)n1)C(=O)NC1(c2cccc(Br)c2)CCCC1 [Compound 58, (E)-N-(1-(3-bromophenyl)cyclopentyl)-3-(6-bromopyridin-2-yl)-2-cyanoacrylamide] |  | ≥ 75 | A (A is ≧75% inhibition) |
| 50 to 75 | CCOC(=O)c1cccc(-c2cccc(/C=C(\C#N)C(=O)NC3(c4ccccc4)CCCC3)n2)c1F [Compound 60] |  | ≥ 75 | A (A is ≧75% inhibition) |
| ≥ 75 | N#C/C(=C\c1cccc(C#CCn2cccn2)n1)C(=O)NC1(c2ccccc2)CCCC1 [Compound 43, (E)-3-(6-(3-(1H-pyrazol-1-yl)prop-1-yn-1-yl)pyridin-2-yl)-2-cyano-N-(1-phenylcyclopentyl)acrylamide] |  | ≥ 75 | A (A is ≧75% inhibition) |
| 50 to 75 | N#C/C(=C\c1cccc(C#CC2(O)CCCC2)n1)C(=O)NC1(c2ccccc2)CCCC1 [Compound 45] |  | ≥ 75 | A (A is ≧75% inhibition) |
